Like-named read-outs stand apart in the source and are kept apart here.
How the values were obtained:
[1] = system: 5′- and 3′-UTRs of human utrophin; assay: Screening assay: C2C12 stable reporter line, CMV-driven luciferase flanked by utrophin 5′ and 3′ UTRs; assay type: cell-based; details: for EC50: C2C12
Procedure: (§1) The construct for the HTS assay was generated by cloning the 5′- and 3′-UTRs of human utrophin into pGL4:50-hygro (Promega, Madison, Wis.) at the 5′ and 3′ of the luciferase coding sequence and has been described previously by Moorwood. […] For the counterscreening assay, the pGL4:50-hygro plasmid was used alone. Low passage C2C12 cells obtained from ATCC were transfected with either constructs, stably selected with 500 μg/mL hygromycin and subcloned using two rounds of serial dilutions to isolate single cell-derived colonies in a 96 wells plate format. […] The selected clones were cultured in presence of 100 μg/mL hygromycin B and were transferred to the HTS Facility at the University of Pennsylvania for implementation into a 384-wells format suitable for HTS.
(§2) The construct for generating the screening C2C12 cell line carrying the 5′ and 3′UTR of the human utrophin gene is described by Moorwood. […] Some compounds could increase light emission independently from the 5′ and 3′UTR regions, i.e., by activating the CMV promoter or increasing overall mRNA synthesis. Therefore, in order to distinguish such compounds, a counterscreening cell line stably expressing only the CMV-driven luciferase gene was generated (FIG. 1A). To determine optimal conditions for the implementation in a 384-wells high-throughput format, evaluated were DMSO tolerance, optimal cell density and incubation time (FIG. 5A-5C).
(§3) A first criterion for evaluating the performance of the selected hits was whether their activity was dose-dependent. After performing a dose-response analysis (5 nM to 10 μM) of each hit in the screening cell line, a clustering approach was applied (complete linkage with Euclidean distance measurement) to highlight similarities between compounds profiles. […] By modeling each dose-response trace with a 4-parameter logistic model applied to the Z— score values (FIG. 2B), the EC50 of each molecule was calculated.
(§4) Cells were allowed to attach overnight at 37° C., 5% CO2 in a humidified chamber. […] Compounds were added to a final concentration of 1 μM and 100 nM in 0.2% DMSO. Columns 1 and 23 were treated with 0.2% DMSO (negative control). Columns 2 and 24 were treated with 100 nM Panobinostat (positive control). Cells were incubated for 24 hours at 37° C., 5% CO2. […] Luminescence was measured on an EnVisionXcite Multilabel Plate Reader (PerkinElmer), using ultrasensitive luminescence measurement technology.

[2] = system: CMV-driven luciferase gene; assay: Counterscreening assay: C2C12 line stably expressing only the CMV-driven luciferase gene; assay type: cell-based; details: Mus musculus, C2C12, read-out: counterscreening EC50
Procedure: as §1, §2, §3, §4

[3] = system: utrophin protein in C2C12 cells; assay: Utrophin western blot in C2C12 cells (endogenous protein expression); assay type: cell-based; details: 24 hours
Procedure: The 10 highest scoring hits were selected from this subset for performing in vitro validation. C2C12 cells were treated with 1 μM concentrations of the selected hits for 24 hours, followed by western blot evaluation of utrophin levels as an orthogonal assay for endogenous protein expression. […] Panobinostat, an FDA-approved non-selective HDAC inhibitor for cancer treatment, increased utrophin levels by 1.9-fold. […] AR-42 (S2244), another HDAC inhibitor with proven preclinical efficacy in contrasting cancer-induced cachexia, increased utrophin by 2.3-fold and had the second highest H2LPS. Consistent with the calculated HPS, the highest scoring hit, TSA (S1045), had also the highest magnitude of protein upregulation (3.9-fold) followed by PCI-24781 (S1090; 3.7-fold). Importantly, high H2LPS was generally correlated with confirmation in WB assays (FIG. 2E).
(§5) Total RNA was extracted from TA muscle samples with RNAeasy kit (Qiagen, USA) and reverse transcribed with random hexamers. qPCR was performed using Taqman probes for Utrophin (Assay ID Mm01168846_ml) and β-actin. Muscle tissue samples were lysed with TNEC buffer (50 mM Tris-HCl, pH 8.0; 150 mMNaCl; 1% NP40; 2 mM EDTA) buffer containing complete protease inhibitor cocktail (Roche, Basel, Switzerland). C2C12 cells were treated for 24 h with 1 μM concentrations of compounds from a fresh batch (3 wells for each compound), and cell samples were lysed with RIPA buffer with protease inhibitor cocktail. The experiment was repeated three independent times. 50-75 μg of total proteins from muscle tissues, or 4 μg of cell protein extracts, were resolved on a 3-8% Tris-Acetate gradient gel (NuPage; Invitrogen), transferred to PDVF or nitrocellulose membranes and mouse monoclonal anti-utrophin antibody MANCHO3 clone 8A4 (developed by Glenn E. Morris and obtained from the Developmental Studies Hybridoma Bank, Iowa) or a custom-made anti-UtrophinA rabbit polyclonal antibody (muscle tissue samples) generated and described previously by Chakkalakal et al., Nucleic Acids Res. 36, 826-838 (2008), which is incorporated herein by reference in its entirety.
(§6) TSA is a broad-spectrum HDAC inhibitor. […] To further validate in vitro the dose-dependent capacity of TSA to upregulate utrophin protein, C2C12 cells were treated for 24 hours with increasing concentrations of TSA (from 1 nM to 10 μM) (FIG. 3B). Consistent with the single-dose western blot validation experiments, utrophin protein levels were increased 4.3 times by 1 μM TSA. […] Some cytotoxicity was evident for TSA concentrations higher than 1 μM.

mdx mouse model of DMD = assay: Preclinical TSA treatment in the mdx mouse model of DMD; assay type: in vivo
Procedure: Four-week-old mdx mice (C57BL/10ScSn-DMDmdx/J) were injected intraperitoneally on alternate days with Trichostatin A (Wako Chemicals USA-Inc, Richmond, Va.; dose 30 μg/kg), or an equal volume of sterile PBS for three months. All animal experiments were approved by the Institutional Animal Care and Use Committee at the University of Pennsylvania School of Medicine.
Functional in vivo and ex vivo analyses including rotarod, EDL strength, and sensitivity to damage induced by lengthening contractions (ECC), were performed as described by Krag, et al. Proc. Natl. Acad. Sci. U.S.A. 101, 13856-13860 (2004) and Bogdanovich, S. et al. Functional improvement of dystrophic muscle by myostatin blockade. Nature 420, 418-421 (2002), each of which is incorporated herein by reference in its entirety. Following the procedure, muscles were flash-frozen in liquid nitrogen-cooled isopentane and stored at −80° C.
as §5
To test the ability of TSA to increase utrophin in vivo and improve the dystrophic phenotype, 4 week-old mdx mice were treated with i.p. injections of 30 μg/kg body weight TSA, on alternating days for a total of 3 months.

C2C12 cells = assay: Cytotoxicity in C2C12 cells treated with increasing TSA concentrations; assay type: cell-based; details: 24 hours
Procedure: as §6

[4] = system: HDAC activity and proliferation of cancer cells; details: depending on the particular cell line; cited from earlier work
[5] = ex vivo EDL, treated mdx, normalized by cross sectional area
[6] = treated mdx, TSA 30 μg/kg i.p. alternate days, 3 months

SMILES: CC(/C=C/C(=O)NO)=C\[C@@H](C)C(=O)c1ccc(N(C)C)cc1 [Trichostatin A]
- EC50 ([1]; 4-parameter logistic fit of Z-scores, 24 h, no unit in table (0.013 = 13 nM), read-out: EC50 screen): 13 nM
- EC50 ([1]; read-out: EC50 score (1 to 4)): < 50 nM
- EC50 ([1]; read-out: screening EC50): 13 nM
- Upper-lower limits scoren ([1]; difference between upper and lower boundaries of the fitted dose-response screening curve): 34.53
- Fold diff ([1]; fold difference between the EC50s of screening and counterscreening): 119.82
- EC50 [2]: 1300 nM
- Utrophin protein levels, fold increase ([3]; 1 μM, normalized to tubulin, vs 0.1% DMSO control): 3.9 fold
- EC50 ([3]; Mus musculus, C2C12, 1 nM to 10 μM, read-out: EC50 for utrophin protein levels): 88 nM
- utrophin protein levels increased ([3]; dose-response western blot, 1 μM TSA): 4.3 times
- ECC force drop 1-5 (mdx mouse model of DMD; EDL, 5 consecutive eccentric contractions, treated mdx): 25.81 ± 4.46%
- less force lost than control-treated muscles after the 5th ECC (mdx mouse model of DMD; EDL, series of 5 ECCs, FIG. 4G): 37%
- Utrophin mRNA levels increased (mdx mouse model of DMD; TA muscle, qPCR, after TSA treatment): 4.9 fold
- utrophin protein levels increased (mdx mouse model of DMD; TA muscle, western blot, after TSA treatment): 2 fold
- myostatin or follistatin gene expression (mdx mouse model of DMD; TA muscles, FIG. 7): did not cause changes
- lower number of centrally nucleated fibers (mdx mouse model of DMD; TSA-treated EDL muscles vs control): 30%
- isometric twitch and tetanic strength of EDL muscles (mdx mouse model of DMD; before and after normalization by crossectional area): significantly higher
- effect on body weight or the wet weight of skeletal muscles and organs (mdx mouse model of DMD; compared to control-treated mice): did not affect
- EDL Tetanic force (mdx mouse model of DMD; ex vivo EDL, treated mdx): 351.9 ± 16.61 mN
- EDL Twitch force (mdx mouse model of DMD; ex vivo EDL, treated mdx): 64.19 ± 4.22 mN
- EDL Tetanic force (specific) (mdx mouse model of DMD; [5]): 166.0 ± 9.09 mN/mm^2
- EDL Twitch force (specific) (mdx mouse model of DMD; [5]): 29.98 ± 1.84 mN/mm^2
- serum creatine kinase or hydroxyproline content in TA and diaphragm muscles (mdx mouse model of DMD; mouse, in vivo): No significant changes
- Diaphragm Hydroxyproline Diaphragm (mdx mouse model of DMD; treated mdx): 3.33 ± 0.22 µg/mg
- Diaphragm Hydroxyproline TA (mdx mouse model of DMD; treated mdx): 0.90 ± 0.06 µg/mg
- EDL CNF (centrally nucleated fibers) (mdx mouse model of DMD; treated mdx): 24.62 ± 2.30%
- EDL CSA (cross sectional area) (mdx mouse model of DMD; treated mdx): 2.20 ± 0.13 mm^2
- EDL L0 (muscle length) (mdx mouse model of DMD; treated mdx): 12.16 ± 0.20 mm
- Serum CK (mdx mouse model of DMD; treated mdx): 7450 ± 2381 U/L
- EDL muscle weight (mdx mouse model of DMD; [6]): 17.5 ± 0.4 mg
- Gastrocnemius muscle weight (mdx mouse model of DMD; [6]): 213.0 ± 11.0 mg
- Heart weight (mdx mouse model of DMD; [6]): 159.7 ± 5.2 mg
- Kidneys weight (mdx mouse model of DMD; [6]): 532.3 ± 25.8 mg
- Liver weight (mdx mouse model of DMD; [6]): 1179.0 ± 36.4 mg
- Quadriceps muscle weight (mdx mouse model of DMD; [6]): 234.6 ± 8.7 mg
- Soleus muscle weight (mdx mouse model of DMD; [6]): 12.8 ± 0.4 mg
- Tibialis Anterior (TA) muscle weight (mdx mouse model of DMD; [6]): 66.1 ± 1.5 mg
- Body weight (mdx mouse model of DMD; treated mdx, TSA 30 μg/kg i.p. alternate days, 3 months, mean ± SEM): 30.2 ± 0.5 g
- rotarod test performance (mdx mouse model of DMD; treated vs control mdx): performed significantly better than control mdx
- concentrations at which some cytotoxicity was evident (C2C12 cells): higher than 1 μM
- IC50 in vitro [4]: nM to μM range
